Tests used:
NRK [1] = test: Cytotoxicity against rat NRK cells assessed as reduction in cell viability incubated for 24 hrs under 19% O2 condition by WST-1 assay; assay type: cell-based
H9c2 [2] = test: Cytotoxicity against rat H9c2 cells assessed as reduction in cell viability incubated for 24 hrs under 19% O2 condition by WST-1 assay; assay type: cell-based; conditions: H9c2, 24 h
NRK [3] = test: Cytotoxicity against rat NRK cells assessed as reduction in cell viability incubated for 24 hrs under 2% O2 condition by WST-1 assay; assay type: cell-based
MOLM-13 [4] = test: Cytotoxicity against human MOLM13 cells assessed as reduction in cell viability incubated for 24 hrs under 2% O2 condition by WST-1 assay; assay type: functional, cell-based; conditions: MOLM-13, 24 h
MOLM-13 [5] = test: Cytotoxicity against human MOLM13 cells assessed as reduction in cell viability incubated for 24 hrs under 19% O2 condition by WST-1 assay; assay type: functional, cell-based; conditions: MOLM-13, 24 h
[6] = Selectivity index, ratio of EC50 for rat NRK cells to EC50 for human MOLM13 cells under 2% O2 condition; assay type: toxicity; conditions: NRK cells versus MOLM13 cells, read-out: Ratio EC50
[7] = Selectivity index, ratio of EC50 for rat NRK cells to EC50 for human MOLM13 cells under 19% O2 condition; assay type: toxicity; conditions: NRK cells versus MOLM13 cells, read-out: Ratio EC50
[8] = Selectivity index, ratio of EC50 for rat NRK cells to EC50 for human MOLM13 cells; assay type: toxicity; conditions: NRK cells versus MOLM13 cells, read-out: Ratio EC50
[9] = Selectivity index, ratio of EC50 for rat H9c2 cells to EC50 for human MOLM13 cells; assay type: toxicity; conditions: H9c2 cells versus MOLM13 cells, read-out: Ratio EC50
[10] = Solubility of the compound in DMSO; assay type: physicochemical
NRK [11] = test: Cytotoxicity against rat NRK cells assessed as reduction in cell viability incubated for 24 hrs under 19% O2 condition by Hoechst 33342 staining based microscopic analysis
NRK [12] = test: Cytotoxicity against rat NRK cells assessed as reduction in cell viability incubated for 24 hrs under 2% O2 condition by Hoechst 33342 staining based microscopic analysis
H9c2 [13] = test: Cytotoxicity against rat H9c2 cells assessed as reduction in cell viability incubated for 24 hrs under 19% O2 condition by Hoechst 33342 staining based microscopic analysis; conditions: H9c2, 24 h

Structure (SMILES)	EC50 (NRK [1])	EC50 (H9c2 [2])	EC50 (NRK [3])	EC50 (MOLM-13 [4])	EC50 (MOLM-13 [5])	selectivity ratio [6]	selectivity ratio [7]	selectivity ratio [8]	selectivity ratio [9]	solubility [10]	EC50 (NRK [11])	EC50 (NRK [12])	EC50 (H9c2 [13])
[O-][n+]1c2cccc(O)c2[n+]([O-])c2cccc(O)c21	> 50 µM	> 50 µM	> 50 µM	–	–	–	–	–	–	–	–	–	–
CCOC(=O)COc1cccc2c1[n+]([O-])c1cccc(O)c1[n+]2[O-]	12 µM	15 µM	18 µM	–	–	–	–	–	–	–	–	–	–
COc1cccc2c1[n+]([O-])c1cccc(O)c1[n+]2[O-]	77 µM	46 µM	76 µM	–	–	–	–	–	–	–	–	–	–
CCN(CC)C(=O)COc1cccc2c1[n+]([O-])c1cc(C)c(C)cc1[n+]2[O-]	21 µM	41 µM	52 µM	3400 nM	1800 nM	–	–	–	–	–	–	–	–
CCOC(=O)COc1cccc2c1[n+]([O-])c1cc(Br)c(Br)cc1[n+]2[O-]	10 µM	3.3 µM	9.7 µM	1600 nM	2400 nM	–	–	–	–	–	–	–	–
Cc1cc2c(cc1C)[n+]([O-])c1c(O)cccc1[n+]2[O-]	> 50 µM	> 50 µM	> 50 µM	2300 nM	2800 nM	–	–	–	–	–	–	–	–
CC(C)(C)OC(=O)COc1cccc2c1[n+]([O-])c1ccccc1[n+]2[O-]	26 µM	20 µM	25 µM	1900 nM	2200 nM	–	–	–	–	–	–	–	–
CN1CCN(C(=O)Oc2cccc3c2[n+]([O-])c2cc(Cl)c(Cl)cc2[n+]3[O-])CC1	11 µM	3.2 µM	15 µM	320 nM	340 nM	45	> 30	–	–	–	–	–	–
Cc1cc2c(cc1C)[n+]([O-])c1c(OC(=O)N3CCCC3)cccc1[n+]2[O-]	6.6 µM	8.7 µM	8.9 µM	780 nM	1500 nM	–	–	–	–	–	–	–	–
CCOC(=O)Oc1cccc2c1[n+]([O-])c1cccc(OC(=O)OCC)c1[n+]2[O-]	> 25 µM	> 25 µM	> 25 µM	4000 nM	6100 nM	–	–	–	–	–	–	–	–
CN1CCN(C(=O)Oc2cccc3c2[n+]([O-])c2cccc(O)c2[n+]3[O-])CC1	53 µM	100 µM	59 µM	1400 nM	1500 nM	–	–	> 15	> 15	–	–	–	–
Cc1cc2c(cc1C)[n+]([O-])c1c(OC(=O)N3CCN(C)CC3)cccc1[n+]2[O-]	12 µM	9.4 µM	13 µM	540 nM	630 nM	–	–	–	–	–	–	–	–
CN1CCN(C(=O)Oc2cccc3c2[n+]([O-])c2cc4ccccc4cc2[n+]3[O-])CC1	2 µM	2.3 µM	7.5 µM	1800 nM	2800 nM	–	–	–	–	–	–	–	–
CN1CCN(C(=O)Oc2cccc3c2[n+]([O-])c2cc(Br)c(Br)cc2[n+]3[O-])CC1	6.2 µM	2.2 µM	7.6 µM	230 nM	410 nM	–	–	–	–	–	–	–	–
[O-][n+]1c2ccccc2[n+]([O-])c2c(O)cccc21	79 µM	> 100 µM	> 100 µM	12000 nM	11000 nM	–	–	–	–	–	–	–	–
O=C(Oc1cccc2c1[n+]([O-])c1cccc(O)c1[n+]2[O-])N1CCCC1	9.6 µM	12 µM	15 µM	790 nM	860 nM	–	–	> 15	> 15	–	–	–	–
COc1cccc2c1[n+]([O-])c1cccc(OC(=O)N(C)C)c1[n+]2[O-]	22 µM	35 µM	29 µM	1700 nM	1900 nM	–	–	> 15	> 15	–	–	–	–
CC(C)(C)C(=O)Oc1cccc2c1[n+]([O-])c1cccc(OC(=O)C(C)(C)C)c1[n+]2[O-]	–	> 25 µM	–	8900 nM	11000 nM	–	–	–	–	–	–	–	–

Structure (SMILES)	EC50 (NRK [1])	EC50 (H9c2 [2])	EC50 (NRK [3])	EC50 (MOLM-13 [4])	EC50 (MOLM-13 [5])	selectivity ratio [6]	selectivity ratio [7]	selectivity ratio [8]	selectivity ratio [9]	solubility [10]	EC50 (NRK [11])	EC50 (NRK [12])	EC50 (H9c2 [13])
CCOC(=O)COc1cccc2c1[n+]([O-])c1ccccc1[n+]2[O-]	26 µM	20 µM	25 µM	1700 nM	1500 nM	–	–	–	–	–	–	–	–
[O-][n+]1c2cc3ccccc3cc2[n+]([O-])c2c(O)cccc21	–	–	–	> 10000 nM	–	–	–	–	–	Insoluble	–	–	–
CCOC(=O)COc1cccc2c1[n+]([O-])c1cc(Cl)c(Cl)cc1[n+]2[O-]	3.1 µM	1.3 µM	4.7 µM	380 nM	410 nM	–	–	–	–	–	–	–	–
CN(C)C(=O)Oc1cccc2c1[n+]([O-])c1cccc(O)c1[n+]2[O-]	49 µM	64 µM	62 µM	700 nM	890 nM	–	–	> 15	> 15	–	–	–	–
COc1cccc2c1[n+]([O-])c1cccc(OC(=O)N3CCN(C)CC3)c1[n+]2[O-]	26 µM	26 µM	39 µM	980 nM	1000 nM	–	–	> 15	> 15	–	–	–	–
CCCCC(=O)Oc1cccc2c1[n+]([O-])c1cccc(OC(=O)CCCC)c1[n+]2[O-]	–	> 25 µM	–	22000 nM	36000 nM	–	–	–	–	–	–	–	–
CCN(CC)C(=O)COc1cccc2c1[n+]([O-])c1ccccc1[n+]2[O-]	13 µM	23 µM	16 µM	1400 nM	1200 nM	–	–	–	–	–	–	–	–
Cc1c(C)[n+]([O-])c2c(O)cccc2[n+]1[O-]	–	–	–	> 200000 nM	> 200000 nM	–	–	–	–	–	–	–	–
CCOC(=O)Oc1cccc2c1[n+]([O-])c1cccc(O)c1[n+]2[O-]	–	> 100 µM	–	66000 nM	50000 nM	–	–	–	–	–	–	–	–
CN(C)C(=O)Oc1cccc2c1[n+]([O-])c1ccccc1[n+]2[O-]	19 µM	16 µM	25 µM	2100 nM	1300 nM	–	–	–	–	–	–	–	–
O=C(Oc1cccc2c1[n+]([O-])c1ccccc1[n+]2[O-])N1CCCC1	18 µM	13 µM	21 µM	1200 nM	1500 nM	–	–	–	–	–	–	–	–
CCOC(=O)COc1cccc2c1[n+]([O-])c1cc(C)c(C)cc1[n+]2[O-]	–	> 100 µM	> 100 µM	6300 nM	8300 nM	–	–	–	–	–	–	–	–
Cc1c(C)[n+]([O-])c2c(OC(=O)N3CCN(C)CC3)cccc2[n+]1[O-]	–	–	–	> 200000 nM	> 200000 nM	–	–	–	–	–	–	–	–
Cc1c(C)[n+]([O-])c2c(OC(=O)N3CCOCC3)cccc2[n+]1[O-]	–	–	–	> 200000 nM	> 200000 nM	–	–	–	–	–	–	–	–
COc1cccc2c1[n+]([O-])c1cccc(OC(=O)N3CCCC3)c1[n+]2[O-]	32 µM	35 µM	35 µM	1800 nM	2000 nM	–	–	> 15	> 15	–	–	–	–
CN1CCN(C(=O)Oc2cccc3c2[n+]([O-])c2ccccc2[n+]3[O-])CC1	25 µM	36 µM	37 µM	1900 nM	1500 nM	–	–	–	–	–	–	–	–
Nc1n[n+]([O-])c2ccccc2[n+]1[O-] [TIRAPAZAMINE]	–	–	–	–	–	–	–	–	–	–	> 100 µM	35 µM	> 100 µM

Source: ChEMBL document CHEMBL4732033, “New prodrugs and analogs of the phenazine 5,10-dioxide natural products iodinin and myxin promote selective cytotoxicity towards human acute myeloid leukemia cells” (RSC Med Chem, 2021)
